# Literature values, collected in US6268341A, “Expression of urokinase plasminogen activator inhibitors” (Chiron Corporation, priority 1998, dated 2001).
# Where no end group is shown, it is not given here. Fuc = fucose (fucosylation)
# Key:
# [1] = tested on: osteosarcoma cell line, SaOS-2; conditions: Rabbani et al.
# uPAR = uPAR (Homo sapiens, UniProt Q03405); conditions: Appella et al., J Biol Chem 1987
# Chain of uPAR (Q03405 23-335): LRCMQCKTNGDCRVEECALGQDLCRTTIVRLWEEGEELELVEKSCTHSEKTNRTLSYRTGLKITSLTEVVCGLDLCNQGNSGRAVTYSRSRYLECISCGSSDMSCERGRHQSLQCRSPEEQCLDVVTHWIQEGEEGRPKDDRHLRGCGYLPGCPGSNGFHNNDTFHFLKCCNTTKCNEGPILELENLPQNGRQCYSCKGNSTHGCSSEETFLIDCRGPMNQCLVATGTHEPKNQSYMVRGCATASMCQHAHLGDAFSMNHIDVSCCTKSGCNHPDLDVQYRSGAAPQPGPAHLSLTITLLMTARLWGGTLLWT
Substance,mitogenic activity [1],affinity relative to intact ATF (fold less) (uPAR)
"fucosylated EGF-like domain: fucosylated EGF-like domain (uPA4-43, produced by cleavage from prouPA) (LHQVPSNCDCLNGGT(Fuc)CVSNKYFSNIHWCNCPKKFGGQHCE; cysteine pairing not given here; UniProt P00749 24-63, looked up, fragment)",mitogenic,
"uPA12-32: critical receptor-binding domain alone, residues 12-32 of uPA (DCLNGGTCVSNKYFSNIHWCN; UniProt P00749 32-52, looked up, fragment)",,about 100 fold
